# From PMC8895377, “In Vivo Targeting Replication Protein A for Cancer Therapy” (Frontiers in Oncology, 2022)
# Like-named read-outs stand apart in the source and are kept apart here.
# What was measured:
# [1] = Intrinsic clearance and half-life in mouse microsomes; type: in vitro ADME
# From the text: Toward the goal to identify efficacious and safe RPAi 329 treatment regimens, we conducted single-agent screening in two lung cancer cell line-derived xenograft models. […] Having optimized cellular uptake and solubility via the addition of the propyl morpholino in 329 and 2004, we sought to determine how these modifications impact in vivo anticancer activity using two NSCLC models, A549 adenocarcinoma and H460 large cell carcinoma. […] Analyses of intrinsic clearance and half-life were conducted in mouse and rat microsomes ( Table 1 ). […] These values are less than the rate of 48, which is considered rapid clearance. In rat microsomes, rates of ~64 were obtained for 329 and are less than the rapid rate of 71.
# [2] = Pharmacokinetics in mice (plasma, HPLC-MS/MS); type: in vivo; details: for AUC(0-inf): read-out: AUC 0-inf_obs; for k el: read-out: Lambda_z (converted); for MRT inf: read-out: MRT 0-inf_obs
# Procedure: A method to quantify 329 from plasma has been developed using an internal standard, liquid–liquid extraction, and HPLC-MS/MS. Mouse plasma samples were prepared from treated mice at the indicated times frozen at -80°C until analysis. Plasma samples were thawed (20 µl) and transferred to polypropylene tubes, and the internal standard is added (20 µl of 0.1 ng/µl). Samples were diluted in 0.1 M phosphate buffer (pH = 7.4) and equal volume of methyl tertiary butyl ether. The samples were mixed and centrifuged at 12,000×g for 5 min, and the supernatant was transferred to a clean polypropylene tube. The solvent was evaporated to dryness, brought up in mobile phase analyzed by HPLC-MS/MS (ABSciex 4000). The mobile phase is delivered via gradient using acetonitrile and 0.1% formic acid on an Agilent Zorbax 300SB-C8 150 × 4.6 mm, 5-µm column. The mass spectrometer utilized an electrospray ionization probe run in positive mode. Multiple reaction monitoring was employed with Q1/Q3 (m/z) transitions for 329 at 718.2/128.1 and 687.3/128.1 for the internal standard. The lower limit of quantification is 0.1 ng/ml using 20 µl of plasma.
# PK parameters were assessed in a series of studies in immunocompetent mice both IV and IP ( Figure 7B and Table 4 ). […] The half-life was also well within acceptable range (9 h).
# [3] = IP, DMSO vehicle, 200 mg/kg, mice
# [4] = IP, NMP vehicle, 20 mg/kg, mice
# [5] = IP, NMP vehicle, 200 mg/kg, mice
# [6] = mouse, plasma, ip, 20 mg/kg, IP, NMP vehicle, 20 mg/kg, mice
# [7] = mouse, plasma, ip, 20 mg/kg, NMP vehicle, mice
# [8] = mouse, plasma, ip, 200 mg/kg, DMSO vehicle, mice
# [9] = mouse, plasma, ip, 200 mg/kg, IP, DMSO vehicle, 200 mg/kg, mice
# [10] = mouse, plasma, ip, 200 mg/kg, IP, NMP vehicle, 200 mg/kg, mice
# [11] = mouse, plasma, ip, 200 mg/kg, NMP vehicle, mice
# [12] = mouse, plasma, iv, 2 mg/kg, IV, NMP vehicle, 2 mg/kg, mice
# [13] = mouse, plasma, iv, 2 mg/kg, NMP vehicle, mice
smiles,measurement,setting,value
CCOc1ccc2cc(C3CC(c4ccc(I)cc4)=NN3C(=O)CCCC(=O)NCCCN3CCOCC3)c(Cl)nc2c1 (stereo not drawn) [compound 329],microsomal CLint,[1]; Mouse microsomes,31.7 µL/min/mg
same,half-life,"[1]; Mouse microsomes, read-out: t1/2",0.732 h
same,half-life,"[1]; mouse, rat, microsomes, in mice and rats, read-out: half-lives",0.333 to 0.667 h
same,AUC and Cmax compared to 551,"[2]; DMSO/Tween formulation, data not shown",significant reduction in AUC and Cmax
same,AUMC 0-inf_obs,[2]; [3],95023.52 ng/ml*h^2
same,CI/F_obs,[2]; [3],0.0902 (mg/kg)/(ng/ml)/h
same,Vz/F_obs,[2]; [3],4.015 (mg/kg)/(ng/ml)
same,AUMC 0-inf_obs,[2]; [4],98489.24 ng/ml*h^2
same,CI/F_obs,[2]; [4],0.0012 (mg/kg)/(ng/ml)/h
same,Vz/F_obs,[2]; [4],0.011 (mg/kg)/(ng/ml)
same,AUMC 0-inf_obs,[2]; [5],947545.56 ng/ml*h^2
same,Vz/F_obs,[2]; [5],0.172 (mg/kg)/(ng/ml)
same,AUMC 0-inf_obs,"[2]; IV, NMP vehicle, 2 mg/kg, mice",1897.83 ng/ml*h^2
same,CI/F_obs,"[2]; IV, NMP vehicle, 2 mg/kg, mice",0.0014 (mg/kg)/(ng/ml)/h
same,Vz/F_obs,"[2]; IV, NMP vehicle, 2 mg/kg, mice",0.007 (mg/kg)/(ng/ml)
same,bioavailability,"[2]; mouse, plasma, intraperitoneal, IP at 20 mg/kg versus IV dosing, read-out: absolute bioavailability",84%
same,AUC(0-inf),[2]; [6],16500 ng·h/mL
same,k el,[2]; [6],3.06e-05 s⁻¹
same,MRT inf,[2]; [6],5.98 h
same,half-life,"[2]; mouse, plasma, ip, 20 mg/kg, IP, NMP vehicle, 20 mg/kg, mice, read-out: t1/2 (converted)",6.3 h
same,AUC(0-t),[2]; [7],16400 ng·h/mL
same,Cmax,[2]; [7],2510 ng/mL
same,Tmax,[2]; [7],2 h
same,AUC(0-t),[2]; [8],968 ng·h/mL
same,Cmax,[2]; [8],92.1 ng/mL
same,Tmax,[2]; [8],0.25 h
same,AUC(0-inf),[2]; [9],2220 ng·h/mL
same,k el,[2]; [9],5.56e-06 s⁻¹
same,MRT inf,[2]; [9],42.8 h
same,half-life,"[2]; mouse, plasma, ip, 200 mg/kg, IP, DMSO vehicle, 200 mg/kg, mice, read-out: t1/2 (converted)",30.9 h
same,AUC(0-inf),[2]; [10],64300 ng·h/mL
same,k el,[2]; [10],1.94e-05 s⁻¹
same,MRT inf,[2]; [10],14.7 h
same,half-life,"[2]; mouse, plasma, ip, 200 mg/kg, IP, NMP vehicle, 200 mg/kg, mice, read-out: t1/2 (converted)",9.31 h
same,half-life,"[2]; mouse, plasma, ip, 200 mg/kg, IP, new formulation, 200 mg/kg, read-out: half-life (converted)",9 h
same,AUC(0-t),[2]; [11],52000 ng·h/mL
same,Cmax,[2]; [11],2910 ng/mL
same,Tmax,[2]; [11],8 h
same,AUC(0-inf),[2]; [12],1410 ng·h/mL
same,k el,[2]; [12],5.83e-05 s⁻¹
same,MRT inf,[2]; [12],1.35 h
same,half-life,"[2]; mouse, plasma, iv, 2 mg/kg, IV, NMP vehicle, 2 mg/kg, mice, read-out: t1/2 (converted)",3.28 h
same,AUC(0-t),[2]; [13],1400 ng·h/mL
same,Cmax,[2]; [13],841 ng/mL
same,Tmax,[2]; [13],0.5 h
